Assay results: US8637516B2 (IRM LLC, priority 2010, dated 2014)

Legend:
parental Ba/F3 cells = assay: Proliferation of parental (untransformed, wt) Ba/F3 cells (BAF3/WT); assay type: cell-based, murine; conditions: Mus musculus, Table 1, parental cells with IL3, 48 hours
Protocol: (§1) Compound dilutions were made in 384 well plates.
Compounds were tested for their ability to inhibit the proliferation of wt Ba/F3 cells and Ba/F3 cells transformed with constitutively expressed luciferase reporter and BCR-ABL or Tel-FMS or other Tel fusion kinases (EGFR, JAK2, ALK, BMX, FGFR3, FGFR4, FGR2, FLT1, FLT3, IGF1R, INSR, KDR, KIT, LCK, LYN, MEK, MET, PDGFRα, PDGFRβ, RET, RON, ROS, SRC, SYK, TIE and TYRO) or BRafV600E. Parental Ba/F3 cells were maintained in media containing recombinant mouse IL3 and the kinase transformed Ba/F3 cells were maintained in media without IL-3. 7.5 nl of compounds were spotted to each well of 1536-well assay plates by Liquid handling System Echo 555 (Labcyte). 700 cells were then plated into each well of the assay plates in 7 uL culture media per well and compounds were tested at 0.17 nM to 10 uM in 3-fold serial dilutions. The cells were then incubated for 48 hours at 37° C. 3 uL of Bright-Glo® (Promega) was added to each well and the plates were read using ViewLux (PerkinElmer).
(§2) The emited luminiscence is quantified using ViewLux (PerkinElmer).

[1] = biological target: T1, Ba/F3 cells transformed with human Tel-TrkA (Homo sapiens, UniProt P04629); assay: Proliferation of Ba/F3 cells transformed with human Tel-TrkA (Ba/F3 Tel-TrkA); assay type: cell-based; conditions: Table 1; 48 hours, Bright Glo luminescence; read-out: Ba/F3 Tel-TrkA
T1 construct: expressed in transfected cells; host or cells: Ba/F3 murine hematopoietic progenitor cells (luciferase expressing); the other entry of the earlier key: ETV6 (P41212, Transcription factor ETV6)
Text: as §1, §2

T1 sequence (P04629 510-796 limits assumed): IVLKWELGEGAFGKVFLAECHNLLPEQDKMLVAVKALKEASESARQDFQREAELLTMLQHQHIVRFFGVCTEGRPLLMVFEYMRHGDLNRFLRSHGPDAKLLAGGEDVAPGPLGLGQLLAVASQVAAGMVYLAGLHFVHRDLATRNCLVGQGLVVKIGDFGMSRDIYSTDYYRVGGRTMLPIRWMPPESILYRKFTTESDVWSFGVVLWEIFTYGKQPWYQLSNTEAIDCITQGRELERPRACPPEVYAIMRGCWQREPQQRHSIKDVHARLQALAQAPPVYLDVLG

| SMILES | IC50 [1] | IC50 (parental Ba/F3 cells) |
| --- | --- | --- |
| Fc1cccc([C@H]2CC(F)(F)CN2c2ccc3ncc(Br)n3n2)c1 [X-245, (R)-3-bromo-6-(4,4-difluoro-2-(3-fluorophenyl)pyrrolidin-1-yl)imidazo[1,2-b]pyridazine] | 44 nM | > 10000 nM |
| CCNC(=O)c1cnc2ccc(N3CCCC3c3cccc(F)c3)nn12 (centres unmarked) [X-21] | 42 nM | > 10000 nM |
| O=C(NOC1CCCCO1)c1cnc2ccc(N3CCC[C@@H]3c3cccc(F)c3)nn12 (some centres unmarked) [X-144] | 128 nM | > 10000 nM |
| CCn1nccc1NC(=O)c1cnc2ccc(N3CCC[C@@H]3c3cccc(F)c3)nn12 [X-77] | 548 nM | > 10000 nM |
| N#Cc1ccc(CNC(=O)c2cnc3ccc(N4CCC[C@@H]4c4cccc(F)c4)nn23)cc1 [X-89] | 164 nM | > 10000 nM |
| CC(C)(C)OC(=O)Nc1cnc2ccc(N3CCC[C@@H]3c3cccc(F)c3)nn12 [X-233] | 379 nM | > 10000 nM |
| O=C(NCCCN1CCOCC1)c1cnc2ccc(N3CCC[C@@H]3c3cccc(F)c3)nn12 [X-58] | 390 nM | > 10000 nM |
| O=C(N[C@H]1CCCC[C@@H]1O)c1cnc2ccc(N3CCC[C@@H]3c3cccc(F)c3)nn12 [X-82] | 89 nM | > 10000 nM |
| O=C(NC1CCNCC1)c1cnc2ccc(N3C[C@@H](F)C[C@@H]3c3cccc(F)c3)nn12 [X-120] | 331 nM | > 10000 nM |
| CCC(=O)c1cnc2ccc(N3CCC[C@@H]3c3cccc(F)c3)nn12 [X-123, (R)-1-(6-(2-(3-fluorophenyl)pyrrolidin-1-yl)imidazo[1,2-b]pyridazin-3-yl)propan-1-one] | 97 nM | > 10000 nM |
| O=C(NC1CCCC1)c1cnc2ccc(N3CCC[C@@H]3c3cccc(F)c3)nn12 [X-48] | 37 nM | > 10000 nM |
| CCOCC(=O)Nc1cnc2ccc(N3CCC[C@@H]3c3cccc(F)c3)nn12 [X-168, (R)-2-ethoxy-N-(6-(2-(3-fluorophenyl)pyrrolidin-1-yl)imidazo[1,2-b]pyridazin-3-yl)acetamide] | 17 nM | > 10000 nM |
| COC[C@H](C)NC(=O)c1cnc2ccc(N3CCC[C@@H]3c3cccc(F)c3)nn12 [X-54] | 53 nM | > 10000 nM |
| O=C(NC[C@H]1CCCO1)c1cnc2ccc(N3CCC[C@@H]3c3cccc(F)c3)nn12 [X-84] | 30 nM | > 10000 nM |
| [2H]C1([2H])CC[C@@H](c2cccc(F)c2)N1c1ccc2ncc(C(N)=O)n2n1 [X-10] | 841 nM | > 10000 nM |
| O=C(NCc1ccc(F)cc1)c1cnc2ccc(N3CCC[C@@H]3c3cccc(F)c3)nn12 [X-47] | 70 nM | > 10000 nM |
| O=C(NC1CCCCC1)c1cnc2ccc(N3CCC[C@@H]3c3cccc(F)c3)nn12 [X-49] | 22 nM | > 9340 nM |
| CC(=O)OC(C)(C)C(=O)Nc1cnc2ccc(N3CCC[C@@H]3c3cccc(F)c3)nn12 [X-188] | 46 nM | > 10000 nM |
| [2H]C1([2H])C(c2cccc(F)c2)N(c2ccc3ncc(C(=O)OCC)n3n2)C([2H])([2H])C1([2H])[2H] (centres unmarked) [X-161] | 63 nM | > 10000 nM |
| O=C(NC1CCN(C(=O)CO)CC1)c1cnc2ccc(N3CCC[C@@H]3c3cccc(F)c3)nn12 [X-75, (R)-6-(2-(3-fluorophenyl)pyrrolidin-1-yl)-N-(1-(2-hydroxyacetyl)piperidin-4-yl)imidazo[1,2-b]pyridazine-3-carboxamide] | 98 nM | > 10000 nM |
| O=C(NOCC1CC1)c1cnc2ccc(N3CCC[C@@H]3c3cccc(F)c3)nn12 [X-143] | 45 nM | > 10000 nM |
| CN(C)CCONC(=O)c1cnc2ccc(N3CCC[C@@H]3c3cccc(F)c3)nn12 [X-146] | 302 nM | > 10000 nM |
| CC(C)C[C@H](CO)NC(=O)c1cnc2ccc(N3CCC[C@@H]3c3cccc(F)c3)nn12 [X-107] | 40 nM | > 10000 nM |

Further lines, with some results ahead:

| IC50 [1] | SMILES | IC50 (parental Ba/F3 cells) |
| --- | --- | --- |
| 92 nM | N#Cc1cccc(NC(=O)c2cnc3ccc(N4CCC[C@@H]4c4cccc(F)c4)nn23)c1 [X-65, (R)-N-(3-cyanophenyl)-6-(2-(3-fluorophenyl)pyrrolidin-1-yl)imidazo[1,2-b]pyridazine-3-carboxamide] | > 9510 nM |
| 117 nM | NC(=O)c1cnc2ccc(N3CCCC3c3cccc(F)c3)nn12 (centres unmarked) [X-5, 6-(2-(3-fluorophenyl)pyrrolidin-1-yl)imidazo[1,2-b]pyridazine-3-carboxamide] | > 10000 nM |
| 153 nM | CN1CCN(NC(=O)c2cnc3ccc(N4CCC[C@@H]4c4cccc(F)c4)nn23)CC1 [X-154, (R)-6-(2-(3-fluorophenyl)pyrrolidin-1-yl)-N-(4-methylpiperazin-1-yl)imidazo[1,2-b]pyridazine-3-carboxamide] | > 10000 nM |
| 61 nM | N#Cc1cc(F)cc([C@H]2C[C@H](F)CN2c2ccc3ncc(C(N)=O)n3n2)c1 [X-244] | > 10000 nM |
| 35 nM | O=C(NCC(F)(F)C(F)(F)F)c1cnc2ccc(N3CCC[C@H]3c3cccc(F)c3)nn12 [X-60] | > 10000 nM |
| 676 nM | CN(C)CCNC(=O)c1cnc2ccc(N3CCC[C@@H]3c3cccc(F)c3)nn12 [X-56] | > 10000 nM |
| 51 nM | NC(=O)c1cnc2ccc(N3CCC[C@@H]3c3cccc(F)c3)nn12 [X-6] | > 10000 nM |
| 10 nM | O=C(NC1CCOCC1)c1cnc2ccc(N3CCC[C@@H]3c3cccc(F)c3)nn12 [X-93] | > 10000 nM |
| 586 nM | COC(=O)Nc1cnc2ccc(N3CCC[C@@H]3c3cccc(F)c3)nn12 [X-235] | > 10000 nM |
| 31 nM | CC(C)[C@H](CO)NC(=O)c1cnc2ccc(N3CCC[C@@H]3c3cccc(F)c3)nn12 [X-102] | > 10000 nM |
| 109 nM | CC(=O)OCC(=O)N1CCC(NC(=O)c2cnc3ccc(N4CCC[C@@H]4c4cccc(F)c4)nn23)CC1 [X-73, (R)-2-(4-(6-(2-(3-fluorophenyl)pyrrolidin-1-yl)imidazo[1,2-b]pyridazine-3-carboxamido)piperidin-1-yl)-2-oxoethyl acetate] | > 10000 nM |
| 910 nM | CC(C)(C)OC(=O)N1CC[C@@H](NC(=O)c2cnc3ccc(N4CCC[C@@H]4c4cccc(F)c4)nn23)C1 [X-62] | > 10000 nM |
| 7 nM | CCNC(=O)c1cnc2ccc(N3CCC[C@@H]3c3cccc(F)c3)nn12 [X-55] | > 9620 nM |
| 30 nM | O=C(NCCCCO)c1cnc2ccc(N3CCC[C@@H]3c3cccc(F)c3)nn12 [X-20] | > 10000 nM |
| 331 nM | N/C(=N\OCCO)c1cnc2ccc(N3CCC[C@@H]3c3cccc(F)c3)nn12 [X-229] | > 10000 nM |
| 93 nM | CCOC(=O)c1cnc2ccc(N3CCCCC3c3cccc(F)c3)nn12 (centres unmarked) [X-156, ethyl 6-(2-(3-fluorophenyl)piperidin-1-yl)imidazo[1,2-b]pyridazine-3-carboxylate] | > 10000 nM |
| 3 nM | O=C(NCC(F)(F)F)c1cnc2ccc(N3CCC[C@@H]3c3cccc(F)c3)nn12 [X-53] | > 10000 nM |
| 6 nM | O=C(N[C@H]1CC[C@@H](O)CC1)c1cnc2ccc(N3CCC[C@@H]3c3cccc(F)c3)nn12 [X-80] | > 10000 nM |
| 392 nM | CC(=O)NCC(=O)Nc1cnc2ccc(N3CCC[C@H]3c3cccc(F)c3)nn12 [X-201] | > 10000 nM |
| 951 nM | CCN(CC)CCCNC(=O)c1cnc2ccc(N3CCC[C@H]3c3cccc(F)c3)nn12 [X-40] | > 10000 nM |
